# In PubChem BioAssay AID270 (DTP/NCI, 2004):
# “And” between values parts separate entries of the source, which are not always exact repeats. Equal values may be shown once. Records with an inconclusive call do not appear.
# Tested on: BDF1 mice, s.c. Lewis lung carcinoma, T/C %
# Experiment: NCI In Vivo Anticancer Drug Screen. Data for tumor model Lewis Lung Carcinoma (subcutaneous) in B6D2F1 (BDF1) mice
# How it was run: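 Readout: survival or tumor size, expressed as treated (T) over vehicle control (C). Transplantable tumor implanted in mice; compound given to the treated group.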
# [1] = endpoint: mean tumor weight, dose: 12.5 mg/kg/injection, schedule: Q01DX011 (ip), vehicle: saline, higher = larger tumour
# [2] = endpoint: mean tumor weight, dose: 25.0 mg/kg/injection, schedule: Q01DX011 (ip), vehicle: saline, higher = larger tumour
# [3] = endpoint: mean tumor weight, dose: 50.0 mg/kg/injection, schedule: Q01DX011 (ip), vehicle: saline, higher = larger tumour
# [4] = endpoint: mean tumor weight, dose: 100.0 mg/kg/injection, schedule: Q01DX011 (ip), vehicle: saline, higher = larger tumour
smiles,measurement,setting,value
Nc1ncnc2nc[nH]c12,T/C,[1],101 % of control
same,T/C,[2],104 % of control
same,T/C,[3],84 % of control
same,T/C,[4],43 % of control and 49 % of control
CN(N=O)C(N)=O,T/C,"endpoint: mean tumor weight, dose: 2.5 mg/kg/injection, schedule: Q01DX011 (ip), vehicle: saline, higher = larger tumour",78 % of control
same,T/C,"endpoint: mean tumor weight, dose: 5.0 mg/kg/injection, schedule: Q01DX011 (ip), vehicle: saline, higher = larger tumour",77 % of control
same,T/C,"endpoint: mean tumor weight, dose: 10.0 mg/kg/injection, schedule: Q01DX011 (ip), vehicle: saline, higher = larger tumour",57 % of control
same,T/C,"endpoint: mean tumor weight, dose: 20.0 mg/kg/injection, schedule: Q01DX011 (ip), vehicle: saline, higher = larger tumour",20 % of control
CN(C)/N=N/c1nc[nH]c1C(N)=O,T/C,[1],76 % of control
same,T/C,[2],108 % of control
same,T/C,"endpoint: mean tumor weight, dose: 48.0 mg/kg/injection, schedule: Q01DX011 (ip), vehicle: carboxymethylcellulose (CMC), higher = larger tumour",111 % of control
same,T/C,[3],80 % of control
same,T/C,"endpoint: mean tumor weight, dose: 95.0 mg/kg/injection, schedule: Q01DX011 (ip), vehicle: carboxymethylcellulose (CMC), higher = larger tumour",117 % of control
same,T/C,"endpoint: mean tumor weight, dose: 100.0 mg/kg/injection, schedule: Q01DX010 (ip), vehicle: saline, higher = larger tumour",44 % of control
same,T/C,[4],42 % of control
same,T/C,"endpoint: mean tumor weight, dose: 143.0 mg/kg/injection, schedule: Q01DX011 (ip), vehicle: carboxymethylcellulose (CMC), higher = larger tumour",78 % of control
same,T/C,"endpoint: mean tumor weight, dose: 200.0 mg/kg/injection, schedule: Q01DX010 (ip), vehicle: saline, higher = larger tumour",51 % of control
same,T/C,"endpoint: median survival time, dose: 27.0 mg/kg/injection, schedule: Q01DX015 (ip), vehicle: carboxymethylcellulose (CMC), higher = longer survival",94 % of control and 122 % of control
same,T/C,"endpoint: median survival time, dose: 37.5 mg/kg/injection, schedule: Q01DX009 (ip), vehicle: Klucel (hydroxypropylcellulose) (HPC), higher = longer survival",97 % of control and 116 % of control
same,T/C,"endpoint: median survival time, dose: 37.5 mg/kg/injection, schedule: Q01DX009 (ip), vehicle: saline with Tween-80, higher = longer survival",106 % of control and 118 % of control
same,T/C,"endpoint: median survival time, dose: 40.0 mg/kg/injection, schedule: Q01DX015 (ip), vehicle: carboxymethylcellulose (CMC), higher = longer survival",92 % of control
same,T/C,"endpoint: median survival time, dose: 60.0 mg/kg/injection, schedule: Q01DX015 (ip), vehicle: carboxymethylcellulose (CMC), higher = longer survival",102 % of control
same,T/C,"endpoint: median survival time, dose: 75.0 mg/kg/injection, schedule: Q01DX009 (ip), vehicle: Klucel (hydroxypropylcellulose) (HPC), higher = longer survival",110 % of control
same,T/C,"endpoint: median survival time, dose: 75.0 mg/kg/injection, schedule: Q01DX009 (ip), vehicle: saline with Tween-80, higher = longer survival",118 % of control
same,T/C,"endpoint: median survival time, dose: 100.0 mg/kg/injection, schedule: Q01DX009 (ip), vehicle: saline with Tween-80, higher = longer survival",118 % of control
same,T/C,"endpoint: median survival time, dose: 150.0 mg/kg/injection, schedule: Q01DX009 (ip), vehicle: Klucel (hydroxypropylcellulose) (HPC), higher = longer survival",122 % of control
same,T/C,"endpoint: median survival time, dose: 150.0 mg/kg/injection, schedule: Q01DX009 (ip), vehicle: saline with Tween-80, higher = longer survival",92 % of control
same,T/C,"endpoint: median survival time, dose: 200.0 mg/kg/injection, schedule: Q01DX009 (ip), vehicle: saline with Tween-80, higher = longer survival",113 % of control
same,T/C,"endpoint: median survival time, dose: 300.0 mg/kg/injection, schedule: Q01DX009 (ip), vehicle: Klucel (hydroxypropylcellulose) (HPC), higher = longer survival",95 % of control
same,T/C,"endpoint: median survival time, dose: 450.0 mg/kg/injection, schedule: Q01DX001 (ip), vehicle: carboxymethylcellulose (CMC), higher = longer survival",93 % of control
same,T/C,"endpoint: median survival time, dose: 670.0 mg/kg/injection, schedule: Q01DX001 (ip), vehicle: carboxymethylcellulose (CMC), higher = longer survival",96 % of control
same,T/C,"endpoint: median tumor weight (est.), dose: 23.7 mg/kg/injection, schedule: Q01DX009 (ip), vehicle: carboxymethylcellulose (CMC), higher = larger tumour",102 % of control
same,T/C,"endpoint: median tumor weight (est.), dose: 24.0 mg/kg/injection, schedule: Q01DX009 (ip), vehicle: carboxymethylcellulose (CMC), higher = larger tumour",74 % of control and 77 % of control
same,T/C,"endpoint: median tumor weight (est.), dose: 37.5 mg/kg/injection, schedule: Q01DX009 (ip), vehicle: saline with Tween-80, higher = larger tumour",90 % of control
same,T/C,"endpoint: median tumor weight (est.), dose: 47.0 mg/kg/injection, schedule: Q01DX009 (ip), vehicle: carboxymethylcellulose (CMC), higher = larger tumour",99 % of control
same,T/C,"endpoint: median tumor weight (est.), dose: 47.5 mg/kg/injection, schedule: Q01DX009 (ip), vehicle: carboxymethylcellulose (CMC), higher = larger tumour",50 % of control
same,T/C,"endpoint: median tumor weight (est.), dose: 48.0 mg/kg/injection, schedule: Q01DX009 (ip), vehicle: carboxymethylcellulose (CMC), higher = larger tumour",70 % of control
same,T/C,"endpoint: median tumor weight (est.), dose: 75.0 mg/kg/injection, schedule: Q01DX009 (ip), vehicle: saline with Tween-80, higher = larger tumour",73 % of control
same,T/C,"endpoint: median tumor weight (est.), dose: 95.0 mg/kg/injection, schedule: Q01DX009 (ip), vehicle: carboxymethylcellulose (CMC), higher = larger tumour",79 % of control and 82 % of control and 99 % of control
same,T/C,"endpoint: median tumor weight (est.), dose: 150.0 mg/kg/injection, schedule: Q01DX009 (ip), vehicle: saline with Tween-80, higher = larger tumour",70 % of control
same,T/C,"endpoint: median tumor weight (est.), dose: 300.0 mg/kg/injection, schedule: Q01DX009 (ip), vehicle: saline with Tween-80, higher = larger tumour",36 % of control
